What all share (type): physicochemical
The nature of data set [1]: Heating experiment via DSC followed by XRD. From the text: The heated samples were then collected and subjected to XRD analysis. Table 27: Summary of heating test results for various crystal forms
In general terms: DSC measures the heat that a sample takes up or gives off during a temperature scan.

Data set [2] can be described thus: Solid state stability of crystal forms (XRD and HPLC). The protocol: Samples of the crystal forms B, H, and L were placed under the conditions of 25 °C/60% RH and 40 °C/75% RH for 17 days, and then the physicochemical stability of the samples was tested using XRD and HPLC. Table 24: Summary of solid state stability evaluation of crystal forms
The nature of data set [3]: Room-temperature solubility in solvents. The following applies: thermodynamic from solid, read-out: Solubility S. The protocol: Determination of the solubility of the crystal form G was conducted in 20 selected solvents at room temperature. A sample (about 2 mg) was weighed and added to a 3-mL vial, and the corresponding solvent listed in Table 29 below was added (100 µL each time) until the solid was dissolved. If the solid was still not completely dissolved after 2 mL of the solvent was added, further addition was stopped. The solubility range in the corresponding solvent was calculated according to the mass of the sample and the volume of the solvent. Table 29: Solubility ranges of crystal form G at room temperature

Data set [4] in a line: Dynamic solubility in buffers and water (HPLC, XRD of remaining solid). As to conditions: 37 °C; for solubility at 1 h / solubility at 4 h / solubility at 24 h: thermodynamic from solid, feed concentration 10 mg/mL. The protocol: 2.1. Hydrochloric acid solution at pH 1.0: A specified amount (9.00 mL) of hydrochloric acid was taken, diluted to 1000 mL with water, and shaken well to give the desired solution.
0.2 mol/L potassium dihydrogen phosphate solution: 27.22 g of potassium dihydrogen phosphate was taken, and dissolved and diluted to 1000 mL with water.
0.2 mol/L sodium hydroxide solution: 8.00 g of sodium hydroxide was taken, and dissolved and diluted to 1000 mL with water.
250 mL of a 0.2 mol/L potassium dihydrogen phosphate solution was taken and mixed with the specified amount of a 0.2 mol/L sodium hydroxide solution indicated in the table below. Then, the mixture was diluted to 1000 mL with water and shaken well to give the desired solution. Table 23: Phosphate buffer
Determination of the 1-, 4-, and 24-hour solubilities of the sample in four solvent systems (pH 1.0 buffer, pH 4.5 buffer, pH 6.8 buffer, and water) was conducted with a feed concentration of 10 mg/mL by shaking (400 rpm) at 37 °C. At each time point, a sample was taken, centrifuged (10000 rpm, 2 min), and filtered (through a 0.22 µm PTFE filter membrane, with the initial filtrate discarded). The HPLC concentration of the filtrate was then determined, and the remaining solid was subjected to XRD analysis. Table 30. Summary of dynamic solubility test results for crystal form G

Structures are written as SMILES. Values after ≈ are worked out from the molar mass of the structure shown. Where two headings read alike, the source gives them in different places. Where only a bound is given, the exact number is not on record here.

Regarding `Cn1cc2cc(-c3nn4ccc(C5CC5)nc4c(-c4ccc(OC(F)F)cc4)c3=O)ccc2n1` [Crystal form A, 2-cyclopropyl-9-[4-(difluoromethoxy)phenyl]-7-(2-methyl-2H-indazol-5-yl)-8H-pyrimido[1,2-b]pyridazin-8-one], the “stability on heating” value in data set [1] (after heating (>100 °C)) was “high-temperature stable crystal form”.

Consider `Cn1cc2cc(-c3nn4ccc(C5CC5)nc4c(-c4ccc(OC(F)F)cc4)c3=O)ccc2n1` [Crystal form B, 2-cyclopropyl-9-[4-(difluoromethoxy)phenyl]-7-(2-methyl-2H-indazol-5-yl)-8H-pyrimido[1,2-b]pyridazin-8-one], for which the Crystal form change entry in data set [2] (0 day), in data set [2] (25 °C/60% RH/17 days) and in data set [2] (40 °C/75% RH/17 days) was “No” each time. For the same molecule, the Purity in data set [2] (0 day) came out at 98.69%; in data set [2] (25 °C/60% RH/17 days), 98.69%; in data set [2] (40 °C/75% RH/17 days) it was 98.68%. Also, the “change in crystal form or purity” value in data set [2] (25 °C/60% RH for 17 days) and in data set [2] (40 °C/75% RH for 17 days) was “no change in either crystal form or purity” throughout. Moreover, in data set [1] (Heating temperature 250 °C), the “After heating (crystal form)” value is listed as “Crystal form A”.

As to `Cn1cc2cc(-c3nn4ccc(C5CC5)nc4c(-c4ccc(OC(F)F)cc4)c3=O)ccc2n1` [Crystal form D, 2-cyclopropyl-9-[4-(difluoromethoxy)phenyl]-7-(2-methyl-2H-indazol-5-yl)-8H-pyrimido[1,2-b]pyridazin-8-one], in data set [1] (Heating temperature 150 °C), the “After heating (crystal form)” value is “Crystal forms A + H + L”.

As for `Cn1cc2cc(-c3nn4ccc(C5CC5)nc4c(-c4ccc(OC(F)F)cc4)c3=O)ccc2n1` [Crystal form G, 2-cyclopropyl-9-[4-(difluoromethoxy)phenyl]-7-(2-methyl-2H-indazol-5-yl)-8H-pyrimido[1,2-b]pyridazin-8-one], the “After heating (crystal form)” value in data set [1] (Heating temperature 110 °C) is recorded as “Crystal form A”. Also, the solubility (as a rule, the dissolved amount per volume that the medium holds) was 4800 to 6300 µg/mL (≈ 10400 to 13700 µM) in data set [3] (organic solvent or mixture, 1,4-Dioxane, room temperature); ~1100 µg/mL (≈ 2390 µM) in data set [3] (organic solvent or mixture, ACN, room temperature); < 1100 µg/mL in data set [3] (organic solvent or mixture, ACN/H2O (10:1), room temperature); ~1000 µg/mL (≈ 2180 µM) in data set [3] (organic solvent or mixture, Acetone, room temperature); > 10500 µg/mL in data set [3] (organic solvent or mixture, CHCl3, room temperature); 1900 to 2300 µg/mL (≈ 4140 to 5010 µM) in data set [3] (organic solvent or mixture, DCM, room temperature). Besides, the solubility in data set [3] (organic solvent or mixture, DMAc, room temperature) is > 40000 µg/mL; in data set [3] (organic solvent or mixture, DMF, room temperature), 21000 to 42000 µg/mL (≈ 45700 to 91400 µM); in data set [3] (organic solvent or mixture, DMSO, room temperature), 9500 to 19000 µg/mL (≈ 20700 to 41400 µM); in data set [3] (organic solvent or mixture, EtOAc, room temperature) it was 1100 to 2200 µg/mL (≈ 2390 to 4790 µM); in data set [3] (organic solvent or mixture, EtOH, room temperature), ~1200 µg/mL (≈ 2610 µM); in data set [3] (organic solvent or mixture, IPA, room temperature), ~1000 µg/mL (≈ 2180 µM). The solubility was ~1100 µg/mL (≈ 2390 µM) in data set [3] (organic solvent or mixture, IPAc, room temperature); 5300 to 10500 µg/mL (≈ 11500 to 22900 µM) in data set [3] (organic solvent or mixture, MEK, room temperature); 2000 to 2500 µg/mL (≈ 4350 to 5440 µM) in data set [3] (organic solvent or mixture, MIBK, room temperature); < 1100 µg/mL in data set [3] (organic solvent or mixture, MTBE, room temperature); 3710 to 5500 µg/mL (≈ 8070 to 12000 µM) in data set [3] (organic solvent or mixture, MeOH, room temperature); 5000 to 10000 µg/mL (≈ 10900 to 21800 µM) in data set [3] (organic solvent or mixture, MeOH/DCM (1:1), room temperature). The solubility in data set [3] (organic solvent or mixture, THF, room temperature) is 7000 to 10500 µg/mL (≈ 15200 to 22900 µM); in data set [3] (water, H2O, room temperature) it was < 1100 µg/mL. Further, the Crystal form change entry in data set [4] (H2O, 1 h) is listed as “Yes”; in data set [4] (H2O, 4 h), “Yes”; in data set [4] (H2O, 24 h), “Yes”; in data set [4] (pH 1.0, 1 h), “Yes”; in data set [4] (pH 1.0, 4 h), “Yes”; in data set [4] (pH 1.0, 24 h) it was “Yes”. Besides, the Crystal form change result is on record as “Yes” in data set [4] (pH 4.5, 1 h); “Yes” in data set [4] (pH 4.5, 4 h); “Yes” in data set [4] (pH 4.5, 24 h); “Yes” in data set [4] (pH 6.8, 1 h); “Yes” in data set [4] (pH 6.8, 4 h); “Yes” in data set [4] (pH 6.8, 24 h). The solubility at 1 h in data set [4] (pH 1.0 buffer, simulated gastric fluid, pH 1.0, 1 h) is 0.32 µg/mL (≈ 0.696 µM); in data set [4] (water, H2O, 1 h), 0.13 µg/mL (≈ 0.283 µM). For the same molecule, the solubility at 4 h was 0.16 µg/mL (≈ 0.348 µM) in data set [4] (pH 1.0 buffer, simulated gastric fluid, pH 1.0, 4 h); 0.07 µg/mL (≈ 0.152 µM) in data set [4] (pH 4.5 buffer, aqueous buffer, pH 4.5, 4 h); 0.09 µg/mL (≈ 0.196 µM) in data set [4] (water, H2O, 4 h). In addition, the solubility at 24 h in data set [4] (pH 1.0 buffer, simulated gastric fluid, pH 1.0, 24 h) was 0.12 µg/mL (≈ 0.261 µM); in data set [4] (pH 4.5 buffer, aqueous buffer, pH 4.5, 24 h), 0.08 µg/mL (≈ 0.174 µM); in data set [4] (pH 6.8 buffer, aqueous buffer, pH 6.8, 24 h) it was 0.06 µg/mL (≈ 0.131 µM).

In the case of `Cn1cc2cc(-c3nn4ccc(C5CC5)nc4c(-c4ccc(OC(F)F)cc4)c3=O)ccc2n1` [Crystal form H, 2-cyclopropyl-9-[4-(difluoromethoxy)phenyl]-7-(2-methyl-2H-indazol-5-yl)-8H-pyrimido[1,2-b]pyridazin-8-one], the Crystal form change result is listed as “No” in data set [2] (0 day); “No change in crystal form was observed, but the crystallinity decreased” in data set [2] (25 °C/60% RH/17 days); “No” in data set [2] (40 °C/75% RH/17 days). For the same molecule, the Purity in data set [2] (0 day) is given as 98.62%; in data set [2] (25 °C/60% RH/17 days) it was 98.59%; in data set [2] (40 °C/75% RH/17 days) it was 98.59%. Also, the “change in crystal form or purity” value is recorded as “no change in purity, but had a decrease in crystallinity” in data set [2] (25 °C/60% RH for 17 days) and “no change in either crystal form or purity” in data set [2] (40 °C/75% RH for 17 days). Moreover, in data set [1] (Heating temperature 250 °C), the “After heating (crystal form)” value was “Crystal form A”.

`Cn1cc2cc(-c3nn4ccc(C5CC5)nc4c(-c4ccc(OC(F)F)cc4)c3=O)ccc2n1` [Crystal form I, 2-cyclopropyl-9-[4-(difluoromethoxy)phenyl]-7-(2-methyl-2H-indazol-5-yl)-8H-pyrimido[1,2-b]pyridazin-8-one]: the “After heating (crystal form)” value in data set [1] (Heating temperature 150 °C) is given as “Crystal form A”.

Take `Cn1cc2cc(-c3nn4ccc(C5CC5)nc4c(-c4ccc(OC(F)F)cc4)c3=O)ccc2n1` [Crystal form M, 2-cyclopropyl-9-[4-(difluoromethoxy)phenyl]-7-(2-methyl-2H-indazol-5-yl)-8H-pyrimido[1,2-b]pyridazin-8-one]: the “After heating (crystal form)” value in data set [1] (Heating temperature 150 °C) was “Crystal form A”.

As to `Cn1cc2cc(-c3nn4ccc(C5CC5)nc4c(-c4ccc(OC(F)F)cc4)c3=O)ccc2n1` [Crystal form N, 2-cyclopropyl-9-[4-(difluoromethoxy)phenyl]-7-(2-methyl-2H-indazol-5-yl)-8H-pyrimido[1,2-b]pyridazin-8-one], in data set [1] (Heating temperature 100 °C), the “After heating (crystal form)” value was “Crystal form A”.

With `Cn1cc2cc(-c3nn4ccc(C5CC5)nc4c(-c4ccc(OC(F)F)cc4)c3=O)ccc2n1` [Crystal form O, 2-cyclopropyl-9-[4-(difluoromethoxy)phenyl]-7-(2-methyl-2H-indazol-5-yl)-8H-pyrimido[1,2-b]pyridazin-8-one], the “After heating (crystal form)” value in data set [1] (Heating temperature 150 °C) is recorded as “Crystal form A”.

Turning to `Cn1cc2cc(-c3nn4ccc(C5CC5)nc4c(-c4ccc(OC(F)F)cc4)c3=O)ccc2n1` [Crystal form P, 2-cyclopropyl-9-[4-(difluoromethoxy)phenyl]-7-(2-methyl-2H-indazol-5-yl)-8H-pyrimido[1,2-b]pyridazin-8-one], in data set [1] (Heating temperature 150 °C), the “After heating (crystal form)” value is “Crystal form A”.

In the case of `Cn1cc2cc(-c3nn4ccc(C5CC5)nc4c(-c4ccc(OC(F)F)cc4)c3=O)ccc2n1` [Crystal form Q, 2-cyclopropyl-9-[4-(difluoromethoxy)phenyl]-7-(2-methyl-2H-indazol-5-yl)-8H-pyrimido[1,2-b]pyridazin-8-one], the “After heating (crystal form)” value in data set [1] (Heating temperature 130 °C) is on record as “Crystal form A”.

Source of the values: patent EP4729518A1, “CRYSTAL FORM OF METHIONINE ADENOSYLTRANSFERASE 2A HETEROCYCLIC INHIBITOR, PREPARATION METHOD THEREFOR, AND USE THEREOF” (Nanjing Chia Tai Tianqing Pharmaceutical Co., Ltd., priority 2023, dated 2024).
